Experimental data reported in article PMC9044549 (RSC Advances, 2021).

Experiments:
[1] = system: MCF-7 breast cancer cells; test: In vitro anti-proliferative activity, MTT assay; assay type: cell-based; settings: Homo sapiens, MCF7, read-out: In vitro anti-proliferative activities MCF-7 IC50
[2] = system: HCT-116, HepG-2 and MCF-7 cells; assay type: cell-based; settings: Homo sapiens, read-out: IC50 values against the three cell lines (range)

| IC50 [1] [µM] | IC50 [2] [µM] | Structure (SMILES) |
| --- | --- | --- |
| 18.2 ± 0.55 | 10.8 to 31.5 | COc1cc(-c2ccc(-c3nnc(SC)o3)c(C)n2)cc(OC)c1OC [VIIIa, 2-[2-Methyl-6-(3,4,5-trimethoxyphenyl)pyridin-3-yl]-5-(methylthio)-1,3,4-oxadiazole] |
| 14.8 ± 0.37 |  | CCSc1nnc(-c2ccc(-c3cc(OC)c(OC)c(OC)c3)nc2C)o1 [VIIIb, 2-(Ethylthio)-5-[2-methyl-6-(3,4,5-trimethoxyphenyl)pyridin-3-yl]-1,3,4-oxadiazole] |
| 25.2 ± 0.64 | 10.8 to 31.5 | COc1cc(-c2ccc(-c3nnc(SCCCBr)o3)c(C)n2)cc(OC)c1OC [VIIIc, 2-[(3-Bromopropyl)thio]-5-[2-methyl-6-(3,4,5-trimethoxyphenyl)pyridin-3-yl]-1,3,4-oxadiazole] |
| 27.2 ± 0.68 | 10.8 to 31.5 | CCCCCCSc1nnc(-c2ccc(-c3cc(OC)c(OC)c(OC)c3)nc2C)o1 [VIIId, 2-(Hexylthio)-5-[2-methyl-6-(3,4,5-trimethoxyphenyl)pyridin-3-yl]-1,3,4-oxadiazole] |
| 21.4 ± 0.45 | 10.8 to 31.5 | COc1cc(-c2ccc(-c3nnc(SCC4CCCCC4)o3)c(C)n2)cc(OC)c1OC [VIIIe, 2-[(Cyclohexylmethyl)thio]-5-[2-methyl-6-(3,4,5-trimethoxyphenyl)pyridin-3-yl]-1,3,4-oxadiazole] |
| 21.5 ± 0.67 | 10.8 to 31.5 | COc1cc(-c2ccc(C(=O)N/N=C/c3ccc(O)cc3)c(C)n2)cc(OC)c1OC [Va, (E)-N′-(4-Hydroxybenzylidene)-2-methyl-6-(3,4,5-trimethoxyphenyl)nicotinohydrazide] |
| 8.5 ± 0.24 | 3.25 to 9.15 | COc1ccccc1/C=N/NC(=O)c1ccc(-c2cc(OC)c(OC)c(OC)c2)nc1C [Vb, (E)-N′-(2-Methoxybenzylidene)-2-methyl-6-(3,4,5-trimethoxyphenyl)nicotinohydrazide] |
| 9.15 ± 0.31 | 3.25 to 9.15 | COc1ccc(/C=N/NC(=O)c2ccc(-c3cc(OC)c(OC)c(OC)c3)nc2C)cc1OC [Vc, (E)-N′-(3,4-Dimethoxybenzylidene)-2-methyl-6-(3,4,5-trimethoxyphenyl)nicotinohydrazide] |
| 15.8 ± 0.46 | 10.8 to 31.5 | COc1cc(OC)c(/C=N/NC(=O)c2ccc(-c3cc(OC)c(OC)c(OC)c3)nc2C)c(OC)c1 [Vd, (E)-2-Methyl-N′-(2,4,6-trimethoxybenzylidene)-6-(3,4,5-trimethoxyphenyl)nicotinohydrazide] |
| 46.6 ± 0.95 |  | CCOc1ccc(/C=N/NC(=O)c2ccc(-c3cc(OC)c(OC)c(OC)c3)nc2C)cc1 [Ve, (E)-N′-(4-Ethoxybenzylidene)-2-methyl-6-(3,4,5-trimethoxyphenyl)nicotinohydrazide] |
| 6.32 ± 0.14 | 3.25 to 9.15 | COc1cc(-c2ccc(C(=O)N/N=C/c3cc(C)ccc3C)c(C)n2)cc(OC)c1OC [Vf, (E)-N′-(2,5-Dimethylbenzylidene)-2-methyl-6-(3,4,5-trimethoxyphenyl)nicotinohydrazide] |
| 31.5 ± 0.7 | 10.8 to 31.5 | COc1cc(-c2ccc(C(=O)N/N=C/c3ccc(Cl)cc3)c(C)n2)cc(OC)c1OC [Vg, (E)-N′-(4-Chlorobenzylidene)-2-methyl-6-(3,4,5-trimethoxyphenyl)nicotinohydrazide] |
| 30.1 ± 0.75 | 10.8 to 31.5 | COc1cc(-c2ccc(C(=O)N/N=C/c3cc(Cl)ccc3Cl)c(C)n2)cc(OC)c1OC [Vh, (E)-N′-(2,5-Dichlorobenzylidene)-2-methyl-6-(3,4,5-trimethoxyphenyl)nicotinohydrazide] |
| 4.82 ± 0.05 | 3.25 to 9.15 | COc1cc(-c2ccc(C(=O)N/N=C/c3ccc([N+](=O)[O-])cc3)c(C)n2)cc(OC)c1OC [Vj, (E)-2-Methyl-N′-(4-nitrobenzylidene)-6-(3,4,5-trimethoxyphenyl)nicotinohydrazide] |
| 17.5 ± 0.57 | 10.8 to 31.5 | COc1cc(-c2ccc(C(=O)N/N=C/c3ccncc3)c(C)n2)cc(OC)c1OC [Vk, (E)-2-Methyl-N′-(pyridin-4-ylmethylene)-6-(3,4,5-trimethoxyphenyl)nicotinohydrazide] |
